According to PubChem BioAssay (NCI):
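Method: 48-hour compound exposure of cells in 96-well plates, five concentrations, linear interpolation of endpoints. Here, GI50 denotes the concentration required for 50% inhibition of growth. Definition used: TGI = concentration required for complete inhibition of growth.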

Assays:
Assay in all cases: DTP human tumour cell line panel, 48 h
[1] = test system: RPMI-8226 leukemia
[2] = test system: MDA-MB-231 breast
[3] = test system: CAKI-1 renal
[4] = test system: SF-295 CNS
[5] = test system: SF-268 CNS
[6] = test system: SNB-19 CNS
[7] = test system: MALME-3M melanoma
[8] = test system: A498 renal
[9] = test system: 786-0 renal
[10] = test system: UACC-257 melanoma

Row | SMILES | GI50 [1] | TGI [1] | GI50 [2] | TGI [2] | GI50 [3] | TGI [3] | GI50 [4] | TGI [4] | GI50 [5] | TGI [5] | GI50 [6] | TGI [6] | GI50 [7] | TGI [7] | GI50 [8] | TGI [8] | GI50 [9] | TGI [9] | GI50 [10] | TGI [10]
1 | COP(=O)(OC)C(NC(c1ccccc1)c1ccccc1)c1ccc2c(c1)OCO2 (stereo not given) | 14.1 µM | 32.3 µM | 14 µM | 37.9 µM | 33.2 µM | 89 µM | 29.5 µM | > 100 µM | 29.2 µM | 91.8 µM | 23.4 µM | 47.4 µM | 27.4 µM | 58.9 µM | 22.8 µM | 44.2 µM | 29.5 µM | 74.9 µM | 31.4 µM | 89.7 µM
2 | C1CC[N-]CC1.C1CC[N-]CC1.C1CC[N-]CC1.C1CC[N-]CC1.[Cl][Rh][Cl] | 3.2 µM | 13.6 µM | 21.5 µM | > 100 µM | 67.7 µM | > 100 µM | 3 µM | 81.1 µM | 5.21 µM | 27.9 µM | 4.75 µM | > 100 µM | 6.64 µM | 43.4 µM | 15.6 µM | 55.2 µM | 41.4 µM | > 100 µM | 3.21 µM | 69.4 µM
3 | CC12CCC3C(CC=C4CC(O)CCC43C)C1C/C(=C\N1CCCC1)C2=O (stereo not given) | 37 µM | > 100 µM | 40.8 µM | > 100 µM | 61.2 µM | > 100 µM | 57.2 µM | > 100 µM | > 100 µM | > 100 µM | > 100 µM | > 100 µM | 71.5 µM | > 100 µM | > 100 µM | > 100 µM | > 100 µM | > 100 µM | > 100 µM | > 100 µM
4 | N#Cc1c(C(=O)c2ccccc2)cnn1-c1ccccc1 | > 25 µM | > 25 µM | > 25 µM | > 25 µM | > 25 µM | > 25 µM | > 25 µM | > 25 µM | > 25 µM | > 25 µM | > 25 µM | > 25 µM | > 25 µM | > 25 µM | > 25 µM | > 25 µM | > 25 µM | > 25 µM | > 25 µM | > 25 µM
5 | O=c1c2ccccc2c2ccccc2c(=O)n1-c1cc2c3ccccc3ccc2c2ccccc12 | – | > 100 µM | – | > 100 µM | – | > 100 µM | – | > 100 µM | – | > 100 µM | – | > 100 µM | – | > 100 µM | – | > 100 µM | – | > 100 µM | – | > 100 µM
6 | CSc1nc2c(c(=O)[nH]1)N=C1c3ccccc3C(=O)C1C(c1ccc(F)cc1)N2 (stereo not given) | 4.2 µM | > 100 µM | 12.6 µM | > 100 µM | 3.31 µM | 35.6 µM | 3.67 µM | 34.3 µM | 12.7 µM | 49.9 µM | 15.9 µM | 66 µM | 19.6 µM | > 100 µM | 4.88 µM | 20.5 µM | 12.4 µM | 27.3 µM | 26 µM | > 100 µM
